Results reported in paper PMC9668969 (Nature Communications, 2022).
Where “and” joins values, the source holds several entries; their conditions need not be identical. Equal values may be shown once.

System: WT ELIC
Assay: Fluorescence stopped-flow liposomal Tl+ flux assay, symmetric liposomes
Assay type: biochemical, Erwinia chrysanthemi
Conditions: for Avg (stopped-flow fluorescence quenching rate): average of experiments; for Rate (stopped-flow fluorescence quenching rate): single experiments
Method: The fluorescence sequential-mixing stopped-flow liposomal flux measurements were carried using an SX20 stopped-flow spectrofluorometer (Applied Photophysics) and Pro-Data SX software[13],[30]. 7.5 mg of the respective lipid mixture (POPC, 1:1 POPC: POPE, 1:1 POPC:POPG, 3:1 POPC:POPE, 3:1 POPC:POPG, 2:1:1 POPC:POPE:POPG) was dried in a glass vial to a thin film under a constant stream of N2. The lipids were then further dried under vacuum in a desiccator overnight. The following day the lipids were hydrated in 500 µl of reconstitution buffer (100 mM NaNO3, 10 mM HEPES, pH 7) (Buffer R), 250 µl of 75 mM 8-Aminonaphthalene-1,3,6-Trisulfonic Acid (ANTS, ThermoFisher Scientific) in buffer R, and doped with ~18 mg of CHAPS (Anatrace). The mixture was vortexed and then sonicated with heat until completely solubilized. Following the sonication, the solution was brought to RT then 3.5 µl of 6.7 mg/ml ELIC in Buffer A with 0.02% DDM was added (3 µg per mg of lipid). This combined solution was incubated at RT for 30 min, followed by the addition of 1 ml of 1:1 v/v SM-2 BioBeads in Buffer R and an additional 250 µl of 75 mM ANTS in Buffer R. This mixture was incubated at RT for 2.5 hr with gentle mixing. The liposome suspension was then extruded with an Avanti mini-extruder and 0.1 µm membrane (30×). The extruded liposomes were stored at 13 °C overnight with gentle rotation. The next day, the liposomes were diluted to 2.5 mL using assay buffer (140 mM NaNO3, 10 mM HEPES, pH 7) (Stopped-flow Buffer A), loaded into a PD-10 desalting column (Cytiva), eluted with 3 mL of Stopped-flow Buffer A and subsequently diluted 5-fold with Stopped-flow Buffer A.
Using propylamine as the agonist, the assay and analysis was carried out as previously described[13],[30]. ELIC-containing liposomes were first mixed 1:1 with Buffer A containing 2× the concentration of propylamine. After a variable delay of 10 ms to 25 s, the sample was then mixed 1:1 with a quenching buffer (90 mM NaNO3, 50 mM TlNO3, 10 mM HEPES, pH 7), and ANTS fluorescence (ex. 360 nm, fluorescence above 420 nm) was recorded for 1 s. For each delay time, 5 repeat measurements were obtained. The data were collected using Applied Photophysics Pro-Data SX software. The fluorescence quenching traces were fit to a stretched exponential (Eq. 2a) and the rate of Tl^+ influx was determined at 2 ms (Eq. 2b).2a Ft=F∞+F0−F∞⋅e^−t/τ^β 2b kt=β/τ⋅2ms/τ^(β−1) where Ft, F∞, F0 are the fluorescence at time t, final fluorescence and initial fluorescence. τ is the time constant, β the stretched exponential factor, and kt the calculated rate of Tl^+ influx at 2 ms. The time course of desensitization was also fit to a double exponential and a weighted time constant was calculated as was done for the patch-clamp data using Origin 2019b. All replicates were taken from independent samples.

[1] = WT in PC liposomes, 0.3 mM PA, delay time 0
[2] = WT in PC liposomes, 1 mM PA, delay time 0

Q: Which results are given for `CCCN` [propylamine]?
A: Avg (stopped-flow fluorescence quenching rate) (WT in 2:1:1 PC:PE:PG liposomes, 3 mM PA, delay time 5): 145.791; Avg (stopped-flow fluorescence quenching rate) (WT in 2:1:1 PC:PE:PG liposomes, 3 mM PA, delay time 10): 107.502; Avg (stopped-flow fluorescence quenching rate) (WT in 2:1:1 PC:PE:PG liposomes, 3 mM PA, delay time 25): 38.6642; Rate (stopped-flow fluorescence quenching rate) (WT in 2:1:1 PC:PE:PG liposomes, 10 mM PA, delay time 0): 0; Avg (stopped-flow fluorescence quenching rate) (WT in 2:1:1 PC:PE:PG liposomes, 10 mM PA, delay time 0.025): 169.086; Avg (stopped-flow fluorescence quenching rate) (WT in 2:1:1 PC:PE:PG liposomes, 10 mM PA, delay time 0.05): 180.798; Avg (stopped-flow fluorescence quenching rate) (WT in 2:1:1 PC:PE:PG liposomes, 10 mM PA, delay time 0.05 [sic] (between 0.25 and 1)): 198.043; Rate (stopped-flow fluorescence quenching rate) (WT in 2:1:1 PC:PE:PG liposomes, 10 mM PA, delay time 0.05 [sic] (between 0.25 and 1), listed as PA): 249.635 and 148.719 and 195.774; Avg (stopped-flow fluorescence quenching rate) (WT in 2:1:1 PC:PE:PG liposomes, 10 mM PA, delay time 0.1): 165.345; Avg (stopped-flow fluorescence quenching rate) (WT in 2:1:1 PC:PE:PG liposomes, 10 mM PA, delay time 0.25): 213.572; Rate (stopped-flow fluorescence quenching rate) (WT in 2:1:1 PC:PE:PG liposomes, 10 mM PA, delay time 0.25, listed as PA): 256.17 and 144.253 and 240.291; Avg (stopped-flow fluorescence quenching rate) (WT in 2:1:1 PC:PE:PG liposomes, 10 mM PA, delay time 1): 169.644; Rate (stopped-flow fluorescence quenching rate) (WT in 2:1:1 PC:PE:PG liposomes, 10 mM PA, delay time 1, listed as PA): 228.219 and 122.935 and 157.778; Avg (stopped-flow fluorescence quenching rate) (WT in 2:1:1 PC:PE:PG liposomes, 10 mM PA, delay time 2.5): 155.074; Avg (stopped-flow fluorescence quenching rate) (WT in 2:1:1 PC:PE:PG liposomes, 10 mM PA, delay time 5): 103.359; Avg (stopped-flow fluorescence quenching rate) (WT in 2:1:1 PC:PE:PG liposomes, 10 mM PA, delay time 10): 60.9022; Avg (stopped-flow fluorescence quenching rate) (WT in 2:1:1 PC:PE:PG liposomes, 10 mM PA, delay time 25): 14.6606; Rate (stopped-flow fluorescence quenching rate) (WT in 2:1:1 PC:PE:PG liposomes, 10 mM PA, delay time 25, listed as PA): 13.7363 and 15.821 and 14.4245; Rate (stopped-flow fluorescence quenching rate) (WT in 2:1:1 PC:PE:PG liposomes, 30 mM PA, delay time 0): 0; Avg (stopped-flow fluorescence quenching rate) (WT in 2:1:1 PC:PE:PG liposomes, 30 mM PA, delay time 0.025): 74.8381; Avg (stopped-flow fluorescence quenching rate) (WT in 2:1:1 PC:PE:PG liposomes, 30 mM PA, delay time 0.05): 63.4545; Avg (stopped-flow fluorescence quenching rate) (WT in 2:1:1 PC:PE:PG liposomes, 30 mM PA, delay time 0.1): 63.448; Avg (stopped-flow fluorescence quenching rate) (WT in 2:1:1 PC:PE:PG liposomes, 30 mM PA, delay time 0.25): 66.7765; Avg (stopped-flow fluorescence quenching rate) (WT in 2:1:1 PC:PE:PG liposomes, 30 mM PA, delay time 0.5): 62.7383; Avg (stopped-flow fluorescence quenching rate) (WT in 2:1:1 PC:PE:PG liposomes, 30 mM PA, delay time 1): 67.601; Avg (stopped-flow fluorescence quenching rate) (WT in 2:1:1 PC:PE:PG liposomes, 30 mM PA, delay time 2.5): 40.183; Avg (stopped-flow fluorescence quenching rate) (WT in 2:1:1 PC:PE:PG liposomes, 30 mM PA, delay time 5): 15.7901; Avg (stopped-flow fluorescence quenching rate) (WT in 2:1:1 PC:PE:PG liposomes, 30 mM PA, delay time 10): 23.9739; Avg (stopped-flow fluorescence quenching rate) (WT in 2:1:1 PC:PE:PG liposomes, 30 mM PA, delay time 25): 10.034; Rate (stopped-flow fluorescence quenching rate) (WT in 2:1:1 PC:PE:PG liposomes, 30 mM PA, delay time 25, listed as PA): 8.132 and 11.9359; Avg (stopped-flow fluorescence quenching rate) [1]: 0; Rate (stopped-flow fluorescence quenching rate) [1]: 0; Avg (stopped-flow fluorescence quenching rate) (WT in PC liposomes, 0.3 mM PA, delay time 0.01): 0.08537; Rate (stopped-flow fluorescence quenching rate) (WT in PC liposomes, 0.3 mM PA, delay time 0.01, listed as PA): 0.07068 and 0.08871 and 9.67E-02; Avg (stopped-flow fluorescence quenching rate) (WT in PC liposomes, 0.3 mM PA, delay time 0.025): 0.09939; Avg (stopped-flow fluorescence quenching rate) (WT in PC liposomes, 0.3 mM PA, delay time 0.05): 0.06401; Avg (stopped-flow fluorescence quenching rate) (WT in PC liposomes, 0.3 mM PA, delay time 0.1): 0.08141; Avg (stopped-flow fluorescence quenching rate) (WT in PC liposomes, 0.3 mM PA, delay time 0.25): 0.0402; Rate (stopped-flow fluorescence quenching rate) (WT in PC liposomes, 0.3 mM PA, delay time 0.25, listed as PA): 0.04925 and 0.03838 and 0.03298; Avg (stopped-flow fluorescence quenching rate) (WT in PC liposomes, 0.3 mM PA, delay time 0.5): 0.1212; Rate (stopped-flow fluorescence quenching rate) (WT in PC liposomes, 0.3 mM PA, delay time 0.5, listed as PA): 0.0905 and 0.1754 and 0.09759; Avg (stopped-flow fluorescence quenching rate) (WT in PC liposomes, 0.3 mM PA, delay time 1): 0.07413; Avg (stopped-flow fluorescence quenching rate) (WT in PC liposomes, 0.3 mM PA, delay time 2.5): 0.08146; Rate (stopped-flow fluorescence quenching rate) (WT in PC liposomes, 0.3 mM PA, delay time 2.5, listed as PA): 0.09799 and 0.04957 and 0.09682; Avg (stopped-flow fluorescence quenching rate) (WT in PC liposomes, 0.3 mM PA, delay time 5): 0.09461; Avg (stopped-flow fluorescence quenching rate) [2]: 0; Rate (stopped-flow fluorescence quenching rate) [2]: 0; Avg (stopped-flow fluorescence quenching rate) (WT in PC liposomes, 1 mM PA, delay time 0.01): 0.0808; Rate (stopped-flow fluorescence quenching rate) (WT in PC liposomes, 1 mM PA, delay time 0.01, listed as PA): 0.07542 and 0.09146 and 0.07551; Avg (stopped-flow fluorescence quenching rate) (WT in PC liposomes, 1 mM PA, delay time 0.025): 0.1635; Avg (stopped-flow fluorescence quenching rate) (WT in PC liposomes, 1 mM PA, delay time 0.05): 0.08808; Rate (stopped-flow fluorescence quenching rate) (WT in PC liposomes, 1 mM PA, delay time 0.05, listed as PA): 0.09304 and 0.1089 and 0.06236
